Assay results taken from EP4810500A1, “IMIDAZOL-2-ONE DERIVATIVE AND USE THEREOF IN MEDICINE” (Haisco Pharmaceutical Group Co., Ltd., priority 2023, dated 2025).

What was measured:
CYP1A2 = biological target: T1, CYP1A2 (Homo sapiens, UniProt P05177); test: CYP450 enzyme activity inhibition assay (human liver microsomes); type: in vitro ADME; settings: human, microsomes
T1 construct: from tissue; host or cells: human liver microsomes
T1 sequence (P05177 1-516): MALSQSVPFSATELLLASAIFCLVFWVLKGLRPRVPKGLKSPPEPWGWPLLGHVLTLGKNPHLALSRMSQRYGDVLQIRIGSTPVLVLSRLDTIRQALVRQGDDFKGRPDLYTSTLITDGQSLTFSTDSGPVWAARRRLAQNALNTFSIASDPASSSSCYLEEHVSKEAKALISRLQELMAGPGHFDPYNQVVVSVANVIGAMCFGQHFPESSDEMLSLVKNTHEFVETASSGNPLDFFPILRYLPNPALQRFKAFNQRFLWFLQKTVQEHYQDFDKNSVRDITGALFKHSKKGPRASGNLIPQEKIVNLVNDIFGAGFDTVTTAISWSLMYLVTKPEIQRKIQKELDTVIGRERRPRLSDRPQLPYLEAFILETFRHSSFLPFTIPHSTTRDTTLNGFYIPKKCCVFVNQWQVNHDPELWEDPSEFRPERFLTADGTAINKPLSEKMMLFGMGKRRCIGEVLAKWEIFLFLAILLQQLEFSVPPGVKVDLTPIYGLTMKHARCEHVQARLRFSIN
Method: (§1) The purpose of this study was to evaluate the effects of the test compounds on the activities of five isoenzymes (CYP1A2, CYP2C9, CYP2C19, CYP2D6, and CYP3A4) of human liver microsomal cytochrome P450 (CYP) using an in vitro testing system. The specific probe substrates of CYP450 isoenzymes were incubated with human liver microsomes and test compounds of different concentrations, and reduced nicotinamide adenine dinucleotide phosphate (NADPH) was added to initiate the reaction. After the completion of the reaction, the sample was treated and liquid chromatography-tandem mass spectrometry (LC-MS/MS) was used to quantitatively detect metabolites produced by specific substrates. Changes in CYP enzyme activity were determined, and IC50 value was calculated to evaluate the inhibitory potential of the test compound on each CYP enzyme subtype.

CYP2C19 = biological target: T2, CYP2C19 (Homo sapiens, UniProt P33261); test: as above; type: in vitro ADME; settings: human, microsomes
T2 construct: from tissue; host or cells: human liver microsomes
T2 sequence (P33261 whole entry): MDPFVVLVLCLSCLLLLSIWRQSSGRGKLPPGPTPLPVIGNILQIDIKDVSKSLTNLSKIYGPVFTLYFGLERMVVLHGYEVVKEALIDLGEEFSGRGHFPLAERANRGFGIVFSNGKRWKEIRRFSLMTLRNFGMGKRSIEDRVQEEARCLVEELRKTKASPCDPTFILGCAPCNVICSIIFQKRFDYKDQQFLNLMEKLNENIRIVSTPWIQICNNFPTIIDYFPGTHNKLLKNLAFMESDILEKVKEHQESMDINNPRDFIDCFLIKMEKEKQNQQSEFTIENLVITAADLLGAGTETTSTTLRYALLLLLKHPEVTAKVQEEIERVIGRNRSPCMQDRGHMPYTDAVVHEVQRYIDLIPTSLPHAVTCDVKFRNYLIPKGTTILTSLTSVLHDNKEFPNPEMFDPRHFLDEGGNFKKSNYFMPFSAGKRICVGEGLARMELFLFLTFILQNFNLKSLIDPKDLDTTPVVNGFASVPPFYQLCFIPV
Method: as §1

CYP2C9 = biological target: T3, CYP2C9 (Homo sapiens, UniProt P11712); test: as above; type: in vitro ADME; settings: human, microsomes
T3 construct: from tissue; host or cells: human liver microsomes
T3 sequence (P11712 whole entry): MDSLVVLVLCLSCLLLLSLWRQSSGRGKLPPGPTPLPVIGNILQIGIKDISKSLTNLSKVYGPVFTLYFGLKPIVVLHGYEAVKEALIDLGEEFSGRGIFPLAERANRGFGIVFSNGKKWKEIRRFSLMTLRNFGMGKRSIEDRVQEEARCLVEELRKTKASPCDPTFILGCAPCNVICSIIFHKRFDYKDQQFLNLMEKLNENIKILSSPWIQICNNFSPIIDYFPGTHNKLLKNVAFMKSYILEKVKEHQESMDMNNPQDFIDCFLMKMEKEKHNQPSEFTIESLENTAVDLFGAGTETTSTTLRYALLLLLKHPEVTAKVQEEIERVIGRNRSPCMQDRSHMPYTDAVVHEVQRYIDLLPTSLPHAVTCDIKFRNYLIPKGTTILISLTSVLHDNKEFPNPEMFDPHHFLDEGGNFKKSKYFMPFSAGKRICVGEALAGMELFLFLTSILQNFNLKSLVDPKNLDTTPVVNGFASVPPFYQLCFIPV
Method: as §1

CYP2D6 = biological target: T4, CYP2D6 (Homo sapiens, UniProt P10635); test: as above; type: in vitro ADME; settings: human, microsomes
T4 construct: from tissue; host or cells: human liver microsomes
T4 sequence (P10635 whole entry): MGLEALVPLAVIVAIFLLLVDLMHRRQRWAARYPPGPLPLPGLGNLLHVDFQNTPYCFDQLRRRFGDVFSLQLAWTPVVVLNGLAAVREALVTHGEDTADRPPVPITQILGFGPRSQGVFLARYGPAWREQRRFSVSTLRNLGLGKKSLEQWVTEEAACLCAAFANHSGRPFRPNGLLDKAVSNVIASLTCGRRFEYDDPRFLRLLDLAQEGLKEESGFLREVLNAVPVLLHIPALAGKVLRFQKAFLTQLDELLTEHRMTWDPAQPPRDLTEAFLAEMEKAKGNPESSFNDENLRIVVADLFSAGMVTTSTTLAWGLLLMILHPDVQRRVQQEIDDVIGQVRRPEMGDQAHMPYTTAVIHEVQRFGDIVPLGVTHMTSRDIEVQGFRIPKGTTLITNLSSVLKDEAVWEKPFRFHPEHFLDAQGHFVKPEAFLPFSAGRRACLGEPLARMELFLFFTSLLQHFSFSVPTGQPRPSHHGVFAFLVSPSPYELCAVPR
Method: as §1

CYP3A4 = biological target: T5, CYP3A4 (Homo sapiens, UniProt P08684); test: as above; type: in vitro ADME; settings: human, microsomes
T5 construct: from tissue; host or cells: human liver microsomes
T5 sequence (P08684 whole entry): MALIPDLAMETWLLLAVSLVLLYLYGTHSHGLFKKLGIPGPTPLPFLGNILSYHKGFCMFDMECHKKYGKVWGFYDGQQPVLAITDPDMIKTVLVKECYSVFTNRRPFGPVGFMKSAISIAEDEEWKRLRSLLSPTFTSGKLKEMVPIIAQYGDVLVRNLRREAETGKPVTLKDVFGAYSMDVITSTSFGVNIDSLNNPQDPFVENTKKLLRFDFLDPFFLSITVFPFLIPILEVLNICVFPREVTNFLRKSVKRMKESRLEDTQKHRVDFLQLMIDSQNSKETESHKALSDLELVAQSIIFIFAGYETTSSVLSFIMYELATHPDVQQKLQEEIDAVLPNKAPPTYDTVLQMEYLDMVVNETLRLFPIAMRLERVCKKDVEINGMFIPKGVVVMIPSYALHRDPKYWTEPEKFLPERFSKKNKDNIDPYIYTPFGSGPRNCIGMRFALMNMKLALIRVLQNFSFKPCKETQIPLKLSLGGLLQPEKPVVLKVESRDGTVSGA
Method: as §1

GLP-1R [1] = biological target: T6, GLP-1R (Homo sapiens, UniProt P43220); test: In vitro activity assay (cAMP HTRF, HEK293-CRE-luc-GLP-1R cells); type: cell-based; set-up: expressed in transfected cells; host or cells: HEK293 (HEK293-CRE-luc-GLP-1R); settings: cAMP HTRF 665 nm/620 nm, 1 h incubation
T6 sequence (P43220 24-463): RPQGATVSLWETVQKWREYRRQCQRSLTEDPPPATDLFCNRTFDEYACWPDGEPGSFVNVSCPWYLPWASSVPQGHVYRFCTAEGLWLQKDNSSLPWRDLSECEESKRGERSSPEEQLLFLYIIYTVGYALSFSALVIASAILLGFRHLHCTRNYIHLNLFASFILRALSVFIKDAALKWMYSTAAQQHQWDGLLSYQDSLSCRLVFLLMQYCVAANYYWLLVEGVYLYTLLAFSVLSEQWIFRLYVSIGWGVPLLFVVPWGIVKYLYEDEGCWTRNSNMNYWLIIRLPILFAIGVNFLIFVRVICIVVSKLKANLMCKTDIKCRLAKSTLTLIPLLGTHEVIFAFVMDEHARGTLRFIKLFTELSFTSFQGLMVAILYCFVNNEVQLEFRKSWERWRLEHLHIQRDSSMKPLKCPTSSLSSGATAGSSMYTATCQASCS
Method: HEK293-CRE-luc-GLP-1R cells were seeded into a 384-well cell culture plate (Greiner #781946) at a certain cell density (5 µL/well). 5 µl/well of 2× working solution was added to the 384-well microplate. The microplate was sealed with parafilm and incubated in a 37°C 5% CO2 incubator (Thermo) for 1 h. Subsequently, the detection was performed using the cAMP-GS HIRANGE KIT (PerkinElmer, 62AM6PEB), and detection reagents were prepared according to the kit instruction manual. After the incubation, the detection reagents were added to the 384-well microplate, and the microplate was incubated for 1 h at room temperature in the dark. HTRF signals at 665 nm and 620 nm were then measured using a multimode microplate reader. Data were exported from the microplate reader in Excel format. GraphPad Prism was opened. The logarithm of the sample concentration was calculated. Using the logarithm of concentration as the x-axis and the 665 nm/620 nm ratio as the y-axis, four-parameter logistic fitting was performed to obtain the EC50 value of the curve. Table 1: EC50 of compounds against GLP-1

[2] = Mouse pharmacokinetic assay; type: in vivo, male C57 mice; settings: mouse, plasma, po, mice; for bioavailability: intragastric administration 10 mg/kg (intravenous 2.5 mg/kg); for AUC(0-t): intragastric administration 10 mg/kg
Method: Experimental animals: male C57 mice, 22-25 g, 6 mice/compound.
Experimental design: on the day of the experiment, C57 mice were randomly grouped according to body weight. The animals were fasted with water available for 12 h to 14 h one day before the administration, and were fed 4 h after the administration. Table 2. Administration information
Before and after the administration, 0.06 mL of blood was taken from the orbits under isoflurane anaesthesia and placed in an EDTAK2 centrifuge tube. The blood was centrifuged at 5000 rpm at 4°C for 10 min, and the plasma was collected. The blood collection time points for the intravenous administration group and intragastric administration group were 0, 5 min, 15 min, 30 min, 1 h, 2 h, 4 h, 7 h and 24 h. Before analysis and detection, all samples were stored at -80°C, and the samples were quantitatively analysed by LC-MS/MS. Table 2-1 Pharmacokinetic results of test compounds in mice

[3] = Monkey pharmacokinetic assay; type: in vivo, male cynomolgus monkeys; settings: cynomolgus monkey, po, monkeys
Method: Experimental animals: male cynomolgus monkeys, 3-5 kg, 3-6 years old, 5 monkeys/compound, purchased from Hainan New Source Biotechnology Co., Ltd.
Experimental method: On the day of the experiment, five monkeys were randomly grouped according to body weight, with two in the intravenous administration group and three in the intragastric administration group. The animals were fasted with water available for 14 h to 18 h one day before the administration, and were fed 4 h after the administration. Table 3. Administration information

GLP-1R [4] = biological target: T6, GLP-1R; test: Oral glucose tolerance test (OGTT); type: in vivo, male C57BL/6-G1p1rem2 (hGLP1R) Smoc mice; set-up: from tissue; host or cells: whole animal: male C57BL/6-Glp1r em2(hGLP1R) Smoc knock-in mice; settings: 3 mg/kg, orally administered; from blood glucose AUC0-2 h after glucose load
Method: OGTT experiment was performed in male C57BL/6-G1p1rem2 (hGLP1R) Smoc mice to evaluate the hypoglycaemic effect of GLP-1 receptor agonists. The animals were fasted for more than 16 hours and randomly grouped. Tail tip blood was collected and basal fasting blood glucose (FBG) was measured using a blood glucose meter. Mice with FBG in the range of 3.5-6.5 mmol/L were selected and orally administered, and the control group was administered the vehicle. 15 min after administration, each group of animals was intragastrically administered with 25% glucose solution. Blood glucose levels were measured in tail tip blood collected 15 min, 30 min, 45 min, 1 h, and 2 h after glucose administration. 0-2 h blood glucose AUC0-2 h was calculated using the Graphpad Prism software, and the inhibition rate was further calculated. [formula]

## Cc1cc(-n2nc3c(c2-n2ccn(-c4ccc5c(c4)N(C)C(=O)C54CCOCC4)c2=O)[C@H](C)N(C(=O)c2cc4cc(C5CCOC(C)(C)C5)sc4n2C2(c4noc(=O)[nH]4)C[C@@H]2C)CC3)cc(C)c1F (single isomer, unassigned) [Compound 9]
CYP1A2
  IC50: > 30000 nM
CYP2C19
  IC50: > 30000 nM
CYP2C9
  IC50: 3310 nM
CYP2D6
  IC50: > 30000 nM
CYP3A4
  IC50: > 30000 nM
GLP-1R [1]
  EC50: < 1 nM

## Cc1cc(-n2nc3c(c2-n2ccn(-c4ccc5c(c4)N(C)C(=O)C54CCOCC4)c2=O)[C@H](C)N(C(=O)c2cc4cc([C@H]5CCOC(C)(C)C5)ccc4n2[C@@]2(c4noc(=O)[nH]4)C[C@@H]2C)CC3)cc(C)c1F [Compound 2]
[2]
  bioavailability: 70.3%
  AUC(0-t): 23200 ng·h/mL
[3]; in vivo, intragastric administration 5 mg/kg (intravenous 1 mg/kg)
  bioavailability: 32.6%
[3]; intragastric administration 5 mg/kg, plasma
  AUC(0-t): 11600 ng·h/mL
GLP-1R [1]
  EC50: < 1 nM
GLP-1R [4]
  blood glucose inhibition rate: -25.5%

## [2H]C([2H])([2H])N1C(=O)C2(CCOCC2)c2ccc(-n3ccn(-c4c5c(nn4-c4cc(C)c(F)c(C)c4)CCN(C(=O)c4cc6cc([C@H]7CCOC(C)(C)C7)ccc6n4[C@@]4(c6noc(=O)[nH]6)C[C@@H]4C)[C@H]5C)c3=O)cc21 [Compound 3]
CYP1A2
  IC50: > 30000 nM
CYP2C19
  IC50: > 30000 nM
CYP2C9
  IC50: > 30000 nM
CYP2D6
  IC50: > 30000 nM
CYP3A4
  IC50: > 30000 nM
GLP-1R [1]
  EC50: < 1 nM
GLP-1R [4]
  blood glucose inhibition rate: -37.1%

## [2H]C([2H])([2H])N1C(=O)C2(CCOCC2)c2ccc(-n3ccn(-c4c5c(nn4-c4ccc(F)c(C6(F)CC6)c4)CCN(C(=O)c4cc6cc([C@H]7CCOC(C)(C)C7)ccc6n4[C@@]4(c6noc(=O)[nH]6)C[C@@H]4C)[C@H]5C)c3=O)c(F)c21 [Compound 45]
GLP-1R [1]
  EC50: < 1 nM

## C[C@H]1c2c(nn(-c3ccc(F)c(C4(F)CC4)c3)c2-n2ccn(-c3ccc4c(c3F)N(C)C(=O)C43CCOCC3)c2=O)CCN1C(=O)c1cc2cc([C@H]3CCOC(C)(C)C3)ccc2n1[C@@]1(c2noc(=O)[nH]2)C[C@@H]1C [Compound 46]
GLP-1R [1]
  EC50: < 1 nM

## Cc1cc(-n2nc3c(c2-n2ccn(-c4ccc5c(c4)N(C)C(=O)C54CCOCC4)c2=O)[C@H](C)N(C(=O)c2cc4cc(C5CCOCC5)ccc4n2[C@@]2(c4noc(=O)[nH]4)C[C@@H]2C)CC3)cc(C)c1F [Compound 47]
GLP-1R [1]
  EC50: < 1 nM

## C[C@H]1c2c(nn(-c3ccc(F)c(C4(F)CC4)c3)c2-n2ccn(-c3ccc4c(c3F)N(C)C(=O)C43CCOCC3)c2=O)CCN1C(=O)c1cc2cc(C3CCOCC3)ccc2n1[C@@]1(c2noc(=O)[nH]2)C[C@@H]1C [Compound 49]
GLP-1R [1]
  EC50: < 1 nM

## [2H]C([2H])([2H])N1C(=O)C2(CCOCC2)c2ccc(-n3ccn(-c4c5c(nn4-c4ccc(F)c(C6(F)CC6)c4)CCN(C(=O)c4cc6cc(C7CCOCC7)ccc6n4[C@@]4(c6noc(=O)[nH]6)C[C@@H]4C)[C@H]5C)c3=O)c(F)c21 [Compound 51]
GLP-1R [1]
  EC50: < 1 nM

## C=C(F)c1cc(-n2nc3c(c2-n2ccn(-c4ccc5c(c4)N(C)C(=O)C54CCOCC4)c2=O)[C@H](C)N(C(=O)c2cc4cc([C@H]5CCOC(C)(C)C5)ccc4n2[C@@]2(c4noc(=O)[nH]4)C[C@@H]2C)CC3)ccc1F [Compound 52]
GLP-1R [1]
  EC50: < 1 nM

## [2H]C([2H])([2H])N1C(=O)C2(CCOCC2)c2ccc(-n3ccn(-c4c5c(nn4-c4ccc(F)c(C(=C)F)c4)CCN(C(=O)c4cc6cc([C@H]7CCOC(C)(C)C7)ccc6n4[C@@]4(c6noc(=O)[nH]6)C[C@@H]4C)[C@H]5C)c3=O)cc21 [Compound 53]
GLP-1R [1]
  EC50: < 1 nM

## C=C(F)c1cc(-n2nc3c(c2-n2ccn(-c4ccc5c(c4F)N(C)C(=O)C54CCOCC4)c2=O)[C@H](C)N(C(=O)c2cc4cc([C@H]5CCOC(C)(C)C5)ccc4n2[C@@]2(c4noc(=O)[nH]4)C[C@@H]2C)CC3)ccc1F [Compound 54]
[2]
  bioavailability: 33.8%
  AUC(0-t): 12100 ng·h/mL
GLP-1R [1]
  EC50: < 1 nM

## [2H]C([2H])([2H])N1C(=O)C2(CCOCC2)c2ccc(-n3ccn(-c4c5c(nn4-c4ccc(F)c(C(=C)F)c4)CCN(C(=O)c4cc6cc([C@H]7CCOC(C)(C)C7)ccc6n4[C@@]4(c6noc(=O)[nH]6)C[C@@H]4C)[C@H]5C)c3=O)c(F)c21 [Compound 55]
[2]
  bioavailability: 25.1%
  AUC(0-t): 8670 ng·h/mL
GLP-1R [1]
  EC50: < 1 nM

## Cc1cc(-n2nc3c(c2-n2ccn(-c4ccc5c(c4F)N(C)C(=O)C54CCOCC4)c2=O)[C@H](C)N(C(=O)c2cc4cc(C5CCOCC5)ccc4n2[C@@]2(c4noc(=O)[nH]4)C[C@@H]2C)CC3)cc(C)c1F [Compound 56]
GLP-1R [1]
  EC50: < 1 nM

## [2H]C([2H])([2H])N1C(=O)C2(CCOCC2)c2ccc(-n3ccn(-c4c5c(nn4-c4cc(C)c(F)c(C)c4)CCN(C(=O)c4cc6cc(C7CCOCC7)ccc6n4[C@@]4(c6noc(=O)[nH]6)C[C@@H]4C)[C@H]5C)c3=O)c(F)c21 [Compound 57]
GLP-1R [1]
  EC50: < 1 nM

## [2H]C([2H])([2H])N1C(=O)C2(CCOCC2)c2ccc(-n3ccn(-c4c5c(nn4-c4cc(C)c(F)c(C)c4)CCN(C(=O)c4cc6cc(C7CCOCC7)ccc6n4[C@@]4(c6noc(=O)[nH]6)C[C@@H]4C)[C@H]5C)c3=O)cc21 [Compound 58]
GLP-1R [1]
  EC50: < 1 nM
